Measurements as given in PMC9684503 (Communications Biology, 2022).
Structures can show the parent of a compound that is named as a salt. Where two headings read alike, the source gives them in different places.

Biological target: T1, rat VMAT2-His (Rattus norvegicus, UniProt Q01827)
T1 construct: The ORF of rat VMAT2 was subcloned into a pFastBac vector; His; made in house; host or cells: Sf9 insect cells (baculovirus)
Test: Differential scanning fluorimetry (DSF) with CPM dye: change of melting temperature of purified VMAT2
Format: binding
Conditions: for ΔTm at 12 µM / ΔTm at 37 µM / ΔTm at 10 µM / ΔTm at 30 µM / ΔTm at 90 µM / ΔTm at 270 µM / ΔTm at 11 µM / ΔTm at 33 µM: read-out: ΔTm
Experimental: To screen purified VMAT2 by DSF we expressed the rat VMAT2 protein, as VMAT2-His, in SF9 insect cells using the baculovirus expression system. The transporter was solubilized and purified in n-Dodecyl-β-D-maltoside (DDM)/cholesterol hemisuccinate (CHS) micelles by immobilized metal affinity chromatography (IMAC) and size exclusion chromatography (SEC). […] Screening was performed using DSF and the thiol-reactive dye 7-diethylamino-3-(4-maleimidophenyl)-4-methylcoumarin (CPM), an approach that monitors changes to the protein melting temperature (Tm) upon compound binding. Using CPM or other dyes, DSF-based assays have successfully been used in molecular-based screenings[34],[35]. […] DSF screening was performed in 384 well plates using the thiol-sensing dye 7-diethylamino-3-(4-maleimidophenyl)-4-methylcoumarin (CPM) (Merck). […] Protein melting curves were determined using a LightCycler 480 ii RT-PCR system (Roche), with a temperature ramp increasing from 25 to 95 °C at a rate of 2 °C/min. Data analysis was performed using an in-house software that automatically determines the protein midpoint melting temperature (Tm) based on the second derivative of the melting curves or using the HTSDSF explorer as described in ref. [58]. […] 6 μl of this mix was dispensed to each well of 384 well plates using a Multidrop™ Combi Reagent Dispenser (Thermo Scientific). […] All initial hits were then subjected to an initial validation in triplicates with a compound concentration of 200 μM and a ΔTm > 5× the standard deviation (SD) cut off. […] Processing of the data from the primary screening and the concentration-dependent validation was performed as reported.

[1] = Table S1, primary hits, average change in melting temperature vs controls, triplicates
[2] = Table S2 dose response, compound 0,12 µM
[3] = Table S2 dose response, compound 0,37 µM
[4] = Table S2 dose response, compound 10 µM
[5] = Table S2 dose response, compound 30 µM
[6] = Table S2 dose response, compound 90 µM
[7] = Table S2 dose response, compound 270 µM
[8] = Table S2 dose response, compound 1,11 µM
[9] = Table S2 dose response, compound 3,33 µM

T1 sequence (Q01827 whole entry): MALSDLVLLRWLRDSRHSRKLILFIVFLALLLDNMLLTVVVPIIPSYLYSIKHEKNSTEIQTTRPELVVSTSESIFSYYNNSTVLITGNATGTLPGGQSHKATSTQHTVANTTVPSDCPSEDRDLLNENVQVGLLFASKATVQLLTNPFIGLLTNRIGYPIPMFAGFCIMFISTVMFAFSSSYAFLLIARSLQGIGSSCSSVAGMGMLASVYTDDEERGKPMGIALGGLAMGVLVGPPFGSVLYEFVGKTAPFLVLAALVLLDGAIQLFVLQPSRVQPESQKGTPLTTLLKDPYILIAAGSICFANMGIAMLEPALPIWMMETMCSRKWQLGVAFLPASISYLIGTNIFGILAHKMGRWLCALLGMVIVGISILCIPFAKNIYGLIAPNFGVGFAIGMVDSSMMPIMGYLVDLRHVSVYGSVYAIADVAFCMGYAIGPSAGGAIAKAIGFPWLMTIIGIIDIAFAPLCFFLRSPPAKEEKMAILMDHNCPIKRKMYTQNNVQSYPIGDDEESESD

Row | SMILES | ΔTm [1] | ΔTm at 12 µM [2] | ΔTm at 37 µM [3] | ΔTm at 10 µM [4] | ΔTm at 30 µM [5] | ΔTm at 90 µM [6] | ΔTm at 270 µM [7] | ΔTm at 11 µM [8] | ΔTm at 33 µM [9] | other results
1 | C=CCc1ccccc1OCC(O)CNC(C)C (centres unmarked) [Alprenolol hydrochloride] | 2,30 ± 0,05 oC | -0.11 °C | -0.04 °C | 0.14 °C | 0.73 °C | 0.4 °C | 1.21 °C | 0.04 °C | 0.02 °C | –
2 | C1CCC(C(CC2CCCCN2)C2CCCCC2)CC1 (centres unmarked) [Perhexiline maleate] | – | – | – | -0.18 °C | -0.27 °C | -1.17 °C | -3.23 °C | – | – | –
3 | C[C@H](CCC(=O)O)[C@H]1CC[C@H]2[C@@H]3[C@H](O)C[C@@H]4C[C@H](O)CC[C@]4(C)[C@H]3CC[C@]12C [Chenodiol] | 1,98 ± 0,15 oC | -0.11 °C | -0.01 °C | 0.64 °C | 0.35 °C | 0.57 °C | 2.24 °C | 0.17 °C | 0.19 °C | –
4 | OC(c1cc(C(F)(F)F)nc2c(C(F)(F)F)cccc12)C1CCCCN1 (centres unmarked) [Mefloquine hydrochloride] | -11,15 ± 0,23 oC | -0.02 °C | 0.04 °C | 0.1 °C | 0.21 °C | 0.09 °C | 0.08 °C | 0 °C | -0.11 °C | –
5 | CC(C(O)c1ccc(O)cc1)N1CCC(Cc2ccccc2)CC1.CC(C(O)c1ccc(O)cc1)N1CCC(Cc2ccccc2)CC1.O=C(O)C(O)C(O)C(=O)O (centres unmarked) [Ifenprodil tartrate] | 1,23 ± 0,40 oC | – | – | – | – | – | – | – | – | ΔTm (11 µM): -0,20 oC; ΔTm (12 µM): 0,30 oC; ΔTm (33 µM): 0,14 oC; ΔTm (37 µM): 0,32 oC; ΔTm (270 µM): 0,41 oC; ΔTm [4]: 0,09 oC; ΔTm [5]: 0,06 oC; ΔTm [6]: -0,04 oC
6 | CC(CCc1ccccc1)NCC(O)c1ccc(O)c(C(N)=O)c1 (centres unmarked) [Labetalol hydrochloride] | 0,81 ± 0,07 oC | – | – | 0.27 °C | 0.42 °C | 0.1 °C | 0.24 °C | – | – | –
7 | CN(C)CCCN1c2ccccc2Sc2ccc(C(F)(F)F)cc21 [Triflupromazine hydrochloride] | – | – | – | – | – | – | – | – | – | ΔTm: -4,15 ± 0, 03 oC; ΔTm at 10 µM: -0.1 °C; ΔTm at 30 µM: -0.1 °C; ΔTm at 90 µM: -0.84 °C; ΔTm at 270 µM: -2.21 °C
8 | O=C(c1ccc(F)cc1)C1CCN(CCn2c(=O)[nH]c3ccccc3c2=O)CC1 [Ketanserin tartrate hydrate] | 3,12 ± 0,24 oC | – | – | 1.16 °C | 1.17 °C | 0.95 °C | 2.18 °C | – | – | –
9 | CC(NCCC(c1ccccc1)c1ccccc1)c1ccccc1 (centres unmarked) [Fendiline hydrochloride] | – | – | – | -0.22 °C | -0.24 °C | -1.16 °C | -3.27 °C | – | – | –
10 | CCCCC(CC)CN1CN(CC(CC)CCCC)CC(C)(N)C1 (centres unmarked) [Hexetidine] | – | -0.09 °C | -0.06 °C | -0.28 °C | -0.3 °C | -0.46 °C | -1.54 °C | -0.02 °C | -0.07 °C | –
11 | CCSc1ccc2c(c1)N(CCCN1CCN(C)CC1)c1ccccc1S2.O=C(O)CC(O)C(=O)O.O=C(O)CC(O)C(=O)O [Thiethylperazine dimalate] | – | – | – | – | – | – | – | – | – | ΔTm (11 µM): -0,77 oC; ΔTm (12 µM): -0,61 oC; ΔTm (33 µM): -0,78 oC; ΔTm (37 µM): -0,58 oC; ΔTm (270 µM): -3,69 oC; ΔTm [4]: -1,01 oC; ΔTm [5]: -1,34 oC; ΔTm [6]: -2,15 oC
12 | CN1CCCC(n2nc(Cc3ccc(Cl)cc3)c3ccccc3c2=O)CC1 (centres unmarked) [Azelastine HCl] | 0,85 ± 0,24 oC | – | – | -0.6 °C | 0.35 °C | 0.23 °C | 0.55 °C | – | – | –
13 | C[C@@H]1C[C@H]2[C@@H]3C[C@H](F)C4=CC(=O)C=C[C@]4(C)[C@@]3(Cl)[C@@H](O)C[C@]2(C)[C@H]1C(=O)COC(=O)C(C)(C)C [Clocortolone pivalate] | 1,04 ± 0,11 oC | – | – | – | – | – | – | – | – | –
14 | Cl.Cl.OCCN1CCN(CC/C=C2/c3ccccc3Sc3ccc(Cl)cc32)CC1 [Zuclopenthixol dihydrochloride] | – | – | – | – | – | – | – | – | – | ΔTm (11 µM): -0,58 oC; ΔTm (12 µM): -0,36 oC; ΔTm (33 µM): 0,03 oC; ΔTm (37 µM): -0,44 oC; ΔTm (270 µM): -1,51 oC; ΔTm [4]: -0,07 oC; ΔTm [5]: -1,80 oC; ΔTm [6]: -0,79 oC
15 | CCCc1nn(C)c2c(=O)[nH]c(-c3cc(S(=O)(=O)N4CCN(C)CC4)ccc3OCC)nc12 [Sildenafil] | 1,10 ± 0,14 oC | 0.43 °C | 0.04 °C | 0.11 °C | 0.1 °C | 0.39 °C | 1.04 °C | 0.04 °C | 0.09 °C | –
16 | C#CCN(C)[C@H](C)Cc1ccccc1 [Selegiline hydrochloride] | – | – | – | 0.3 °C | 0.19 °C | 0.28 °C | – | – | – | ΔTm at 11 µM: 0.31 °C; ΔTm at 12 µM: 0.33 °C; ΔTm at 33 µM: 0.32 °C; ΔTm at 37 µM: 0.38 °C; ΔTm at 270 µM: 0.36 °C
17 | CN1CCC(=C2c3ccccc3Sc3ccccc32)CC1 [Pimethixene maleate] | – | – | – | 0.15 °C | -0.18 °C | -0.14 °C | -1.59 °C | – | – | –
18 | CC(C)(C)NC(=O)[C@@H]1C[C@@H]2CCCC[C@@H]2CN1C[C@@H](O)[C@H](Cc1ccccc1)NC(=O)[C@H](CC(N)=O)NC(=O)c1ccc2ccccc2n1 [Saquinavir mesylate] | – | -0.17 °C | -0.28 °C | -0.91 °C | -0.7 °C | -0.55 °C | -1.64 °C | -0.49 °C | -0.65 °C | –
19 | Fc1ccc(C(OCCN2CCN(CCCc3ccccc3)CC2)c2ccc(F)cc2)cc1 [GBR 12909 dihydrochloride] | -17,11 ± 0,01 oC | -0.02 °C | -0.01 °C | -1.07 °C | -1.67 °C | -2.3 °C | -5.4 °C | 0.05 °C | -0.34 °C | –
20 | COC(=O)[C@H]1[C@H]2C[C@@H]3c4[nH]c5cc(OC)ccc5c4CCN3C[C@H]2C[C@@H](OC(=O)c2cc(OC)c(OC)c(OC)c2)[C@@H]1OC [Reserpine] | – | – | – | – | – | – | – | – | – | ΔTm at 10 µM: 13.5 °C; ΔTm at 11 µM: 13.6 °C; ΔTm at 12 µM: 13.7 °C; ΔTm at 30 µM: 13.9 °C; ΔTm at 33 µM: 13.6 °C; ΔTm at 37 µM: 13.7 °C; ΔTm at 90 µM: 14 °C; ΔTm at 270 µM: 13.7 °C
21 | C[C@H](CCC(=O)O)[C@H]1CC[C@H]2[C@@H]3C(=O)C[C@@H]4CC(=O)CC[C@]4(C)[C@H]3CC(=O)[C@]12C [Dehydrocholic acid] | 1,51 ± 0,28 oC | – | – | 0.39 °C | 0.66 °C | 0.53 °C | 1.43 °C | – | – | –
